The source made the active and inactive calls. The calls are words filed in the database; no cut-off is given here.
Columns and labels:
HOP-62 [1] = experiment: Growth inhibition of human HOP62 cells assessed as cell growth at 10^-4 M incubated for 48 hrs by sulforhodamine B assay relative to control; format: functional; details: HOP-62, 48 h, read-out: Activity
NCI-H460 = experiment: Growth inhibition of human NCI-H460 cells assessed as cell growth at 10^-6 M incubated for 48 hrs by sulforhodamine B assay relative to control; format: functional; details: NCI-H460, 48 h, read-out: Activity
SF-268 [2] = experiment: Growth inhibition of human SF268 cells incubated for 48 hrs by sulforhodamine B assay; format: functional; details: SF-268, 48 h
ACHN = experiment: Growth inhibition of human ACHN cells assessed as cell growth at 10^-6 M incubated for 48 hrs by sulforhodamine B assay relative to control; format: functional; details: read-out: Activity
SK-MEL-5 = experiment: Growth inhibition of human SK-MEL-5 cells assessed as cell growth at 10^-4 M incubated for 48 hrs by sulforhodamine B assay relative to control; format: functional; details: SK-MEL-5, 48 h, read-out: Activity
HT-29 [3] = experiment: Growth inhibition of human HT-29 cells assessed as cell growth at 10^-5 M incubated for 48 hrs by sulforhodamine B assay relative to control; format: functional; details: HT-29, 48 h, read-out: Activity
SNB-75 = experiment: Growth inhibition of human SNB75 cells assessed as cell growth at 10^-5 M incubated for 48 hrs by sulforhodamine B assay relative to control; format: functional; details: SNB-75, 48 h, read-out: Activity
Hs-578T = experiment: Growth inhibition of human Hs 578T cells assessed as cell growth at 10^-6 M incubated for 48 hrs by sulforhodamine B assay relative to control; format: functional; details: read-out: Activity
UACC-62 = experiment: Growth inhibition of human UACC62 cells assessed as cell growth at 10^-5 M incubated for 48 hrs by sulforhodamine B assay relative to control; format: functional; details: UACC-62, 48 h, read-out: Activity
NCI-H522 = experiment: Growth inhibition of human NCI-H522 cells incubated for 48 hrs by sulforhodamine B assay; format: functional; details: NCI-H522, 48 h
SF-268 [4] = experiment: Growth inhibition of human SF268 cells assessed as cell growth at 10^-8 M incubated for 48 hrs by sulforhodamine B assay relative to control; format: functional; details: SF-268, 48 h, read-out: Activity
KM12 = experiment: Growth inhibition of human KM12 cells assessed as cell growth at 10^-4 M incubated for 48 hrs by sulforhodamine B assay relative to control; format: functional; details: KM12, 48 h, read-out: Activity
A549 [5] = experiment: Growth inhibition of human A549/ATCC cells assessed as cell growth at 10^-7 M incubated for 48 hrs by sulforhodamine B assay relative to control; format: functional; details: A549, 48 h, read-out: Activity
MOLT-4 = experiment: Growth inhibition of human MOLT4 cells assessed as cell growth at 10^-6 M incubated for 48 hrs by sulforhodamine B assay relative to control; format: functional; details: MOLT-4, 48 h, read-out: Activity
CCRF-CEM = experiment: Growth inhibition of human CCRF-CEM cells assessed as cell growth at 10^-7 M incubated for 48 hrs by sulforhodamine B assay relative to control; format: functional; details: read-out: Activity
HL-60 = experiment: Cell cycle arrest in human HL60 cells assessed as accumulation at G2-phase by propidium iodide staining based flow cytometry (reference value: 6.58%); format: functional
UO-31 [6] = experiment: Growth inhibition of human UO31 cells assessed as cell growth at 10^-6 M incubated for 48 hrs by sulforhodamine B assay relative to control; format: functional; details: UO-31, 48 h, read-out: Activity
HCC 2998 = experiment: Growth inhibition of human HCC2998 cells assessed as cell growth at 10^-6 M incubated for 48 hrs by sulforhodamine B assay relative to control; format: functional; details: HCC 2998, 48 h, read-out: Activity
NCI-H23 = experiment: Growth inhibition of human NCI-H23 cells assessed as cell growth at 10^-4 M incubated for 48 hrs by sulforhodamine B assay relative to control; format: functional; details: NCI-H23, 48 h, read-out: Activity
MDA-MB-435 [7] = experiment: Downregulation of HDAC1 mRNA expression in human MDA-MB-435 cells by qRT-PCR method; format: functional, cell-based
TK-10 = experiment: Growth inhibition of human TK10 cells incubated for 48 hrs by sulforhodamine B assay; format: functional; details: TK-10, 48 h
HOP-62 [8] = experiment: Growth inhibition of human HOP62 cells assessed as cell growth at 10^-5 M incubated for 48 hrs by sulforhodamine B assay relative to control; format: functional; details: HOP-62, 48 h, read-out: Activity
HT-29 [9] = experiment: Growth inhibition of human HT-29 cells assessed as cell growth at 10^-8 M incubated for 48 hrs by sulforhodamine B assay relative to control; format: functional; details: HT-29, 48 h, read-out: Activity
MDA-MB-435 [10] = experiment: Induction of apoptosis in human MDA-MB-435 cells assessed as live cells by propidium iodide/Annexin V staining based flow cytometry (reference value: 97.4%); format: functional
BT-549 = experiment: Growth inhibition of human BT549 cells assessed as cell growth at 10^-8 M incubated for 48 hrs by sulforhodamine B assay relative to control; format: functional; details: BT-549, 48 h, read-out: Activity
UO-31 [11] = experiment: Growth inhibition of human UO31 cells assessed as cell growth at 10^-4 M incubated for 48 hrs by sulforhodamine B assay relative to control; format: functional; details: UO-31, 48 h, read-out: Activity
RXF 393 = experiment: Growth inhibition of human RXF393 cells incubated for 48 hrs by sulforhodamine B assay; format: functional; details: RXF 393, 48 h
CAKI-1 = experiment: Growth inhibition of human Caki1 cells assessed as cell growth at 10^-4 M incubated for 48 hrs by sulforhodamine B assay relative to control; format: functional; details: CAKI-1, 48 h, read-out: Activity
LOX IMVI = experiment: Growth inhibition of human LOXIMVI cells assessed as cell growth at 10^-5 M incubated for 48 hrs by sulforhodamine B assay relative to control; format: functional; details: read-out: Activity
NCI-H322M = experiment: Growth inhibition of human NCI-H322M cells assessed as cell growth at 10^-7 M incubated for 48 hrs by sulforhodamine B assay relative to control; format: functional; details: read-out: Activity
A549 [12] = experiment: Growth inhibition of human A549/ATCC cells assessed as cell growth at 10^-5 M incubated for 48 hrs by sulforhodamine B assay relative to control; format: functional; details: A549, 48 h, read-out: Activity
SW-620 = experiment: Growth inhibition of human SW620 cells assessed as cell growth at 10^-5 M incubated for 48 hrs by sulforhodamine B assay relative to control; format: functional; details: SW-620, 48 h, read-out: Activity
[13] = read-out: LC50 (the source's name)
[14] = read-out: pLC50 (the source's name) (converted)

CCS/C(Nc1ccccc1)=C(\C#N)C(=O)N/N=C\c1ccc(Cl)cc1Cl
growth at 100 µM (HOP-62 [1]): 8% | growth at 1 µM (NCI-H460): 91% | GI50 (SF-268 [2]; read-out: GI50): 6.58 µM | CC50 (SF-268 [2]; [13]): > 100 µM | TGI (SF-268 [2]; read-out: TGI): > 100 µM | GI50 (SF-268 [2]; read-out: pGI50 (converted)): 6.61 µM | CC50 (SF-268 [2]; [14]): > 100 µM | TGI (SF-268 [2]; read-out: pTGI): > 100 µM | growth at 1 µM (ACHN): 92% | growth at 100 µM (SK-MEL-5): -14% | growth at 10 µM (HT-29 [3]): 11% | growth at 10 µM (SNB-75): -2% | growth at 1 µM (Hs-578T): 75% | growth at 10 µM (UACC-62): 26% | GI50 (NCI-H522; read-out: GI50): 1.84 µM | CC50 (NCI-H522; [13]): > 100 µM | GI50 (NCI-H522; read-out: pGI50 (converted)): 1.82 µM | CC50 (NCI-H522; [14]): > 100 µM | growth at 0.01 µM (SF-268 [4]): 94% | growth at 100 µM (KM12): 22% | growth at 0.1 µM (A549 [5]): 92% | growth at 1 µM (MOLT-4): 84% | growth at 0.1 µM (CCRF-CEM): 95% | Activity (HL-60): 22.18% | growth at 1 µM (UO-31 [6]): 86% | growth at 1 µM (HCC 2998): 99% | growth at 100 µM (NCI-H23): 36% | Activity (MDA-MB-435 [7]): Active | GI50 (TK-10; read-out: GI50): 10.2 µM | CC50 (TK-10; [13]): > 100 µM | TGI (TK-10; read-out: TGI): > 100 µM | GI50 (TK-10; read-out: pGI50 (converted)): 10.2 µM | CC50 (TK-10; [14]): > 100 µM | TGI (TK-10; read-out: pTGI): > 100 µM | growth at 10 µM (HOP-62 [8]): 29% | growth at 0.01 µM (HT-29 [9]): 105% | Activity (MDA-MB-435 [10]): 91.29% | growth at 0.01 µM (BT-549): 98% | growth at 100 µM (UO-31 [11]): 41% | GI50 (RXF 393; read-out: GI50): 2.06 µM | CC50 (RXF 393; [13]): > 100 µM | TGI (RXF 393; read-out: TGI): 8.65 µM | GI50 (RXF 393; read-out: pGI50 (converted)): 2.04 µM | CC50 (RXF 393; [14]): > 100 µM | TGI (RXF 393; read-out: pTGI (converted)): 8.71 µM | growth at 100 µM (CAKI-1): 13% | growth at 10 µM (LOX IMVI): 39% | growth at 0.1 µM (NCI-H322M): 91% | growth at 10 µM (A549 [12]): 29% | growth at 10 µM (SW-620): 31%

CCS/C(Nc1ccccc1)=C(\C#N)C(=O)Nc1ccc(OC)cc1
growth at 100 µM (HOP-62 [1]): 37% | growth at 1 µM (NCI-H460): 90% | GI50 (SF-268 [2]; read-out: GI50): 6.8 µM | CC50 (SF-268 [2]; [13]): > 100 µM | TGI (SF-268 [2]; read-out: TGI): > 100 µM | GI50 (SF-268 [2]; read-out: pGI50 (converted)): 6.76 µM | CC50 (SF-268 [2]; [14]): > 100 µM | TGI (SF-268 [2]; read-out: pTGI): > 100 µM | growth at 1 µM (ACHN): 90% | growth at 100 µM (SK-MEL-5): -58% | growth at 10 µM (HT-29 [3]): 8% | growth at 10 µM (SNB-75): -13% | growth at 1 µM (Hs-578T): 84% | growth at 10 µM (UACC-62): 21% | GI50 (NCI-H522; read-out: GI50): 2.21 µM | CC50 (NCI-H522; [13]): > 100 µM | TGI (NCI-H522; read-out: TGI): 9.68 µM | GI50 (NCI-H522; read-out: pGI50 (converted)): 2.19 µM | CC50 (NCI-H522; [14]): > 100 µM | TGI (NCI-H522; read-out: pTGI (converted)): 9.77 µM | growth at 0.01 µM (SF-268 [4]): 101% | growth at 100 µM (KM12): 7% | growth at 0.1 µM (A549 [5]): 94% | growth at 1 µM (MOLT-4): 71% | growth at 0.1 µM (CCRF-CEM): 83% | Activity (HL-60): 16.32% | growth at 1 µM (UO-31 [6]): 87% | growth at 1 µM (HCC 2998): 91% | growth at 100 µM (NCI-H23): 21% | Activity (MDA-MB-435 [7]): Active | GI50 (TK-10; read-out: GI50): 24.3 µM | CC50 (TK-10; [13]): > 100 µM | TGI (TK-10; read-out: TGI): > 100 µM | GI50 (TK-10; read-out: pGI50 (converted)): 24.5 µM | CC50 (TK-10; [14]): > 100 µM | TGI (TK-10; read-out: pTGI): > 100 µM | growth at 10 µM (HOP-62 [8]): 41% | growth at 0.01 µM (HT-29 [9]): 109% | Activity (MDA-MB-435 [10]): 85.55% | growth at 0.01 µM (BT-549): 98% | growth at 100 µM (UO-31 [11]): 16% | GI50 (RXF 393; read-out: GI50): 2.24 µM | CC50 (RXF 393; [13]): > 100 µM | TGI (RXF 393; read-out: TGI): 7.86 µM | GI50 (RXF 393; read-out: pGI50 (converted)): 2.24 µM | CC50 (RXF 393; [14]): > 100 µM | TGI (RXF 393; read-out: pTGI (converted)): 7.94 µM | growth at 100 µM (CAKI-1): 18% | growth at 10 µM (LOX IMVI): 40% | growth at 0.1 µM (NCI-H322M): 92% | growth at 10 µM (A549 [12]): 35% | growth at 10 µM (SW-620): 21%
